Results as given in patent publication US20250333371A1, “COMPOUNDS” (PSYLO PTY LTD, priority 2022, published 2025).
Several values for one entry are separate records, joined by “and”; a condition that tells them apart may be missing. Identical values can stand only once. Like-named read-outs stand apart in the source and are kept apart here.

Assays:
[1] = In vivo pharmacokinetics: plasma and brain exposure after IP administration; parameters: species or system male C57BL/6 mice; conditions: for B:P Ratio Individual / Plasma Concentration (μM) Individual / concentration at 0.5 h / concentration at 0.083 h / concentration at 4 h / Kp at 0.083 h / Kp at 0.5 h / Kp at 4 h / Kp: 10 mg/kg; for Kp at 0.083 h / Kp at 0.5 h / Kp at 4 h / Kp: brain/plasma; for AUC(0-t): read-out: Plasma AUC0-4 h; for AUC(0-inf): read-out: Plasma AUC0-inf; for half-life: read-out: Apparent t1/2 (converted)
Method: The study was conducted using established procedures in accordance with the Australian Code of Practice for the Care and Use of Animals for Scientific Purposes, and the study protocols were reviewed and approved by the Monash Institute of Pharmaceutical Sciences Animal Ethics Committee.
The systemic exposure of selected examples was studied in non-fasted male C57BL/6 mice weighing between 22.3-26.2 g. Mice had access to food and water ad libitum throughout the pre- and post-dose sampling period.
On the day of dosing, the formulation of each compound was prepared by dissolving solid compound in phosphate buffer saline (50 mM) using vortexing, creating colourless solutions (pH 6.1-6.3) for each compound.
Compounds were dosed to mice by IP injection (10 mL/kg dose volume via a 27G needle; n=9 mice per compound) and blood samples were collected at 5 and 30 min; 1, 2 and 4 h post-dose (n=3 mice per time point for each compound). A maximum of three blood samples were obtained from each mouse, with plasma samples being taken via submandibular bleed (approximately 120 μL). Once collected, blood samples were centrifuged immediately, supernatant plasma was removed, and stored at −80° C. until analysis by LCMS. In addition, at the 5 and 30 min and 4 h post-dose time points, the whole brain was rapidly removed from the carcass soon after the blood collection. The whole brains were blotted to remove excess blood, placed into pre-weighed polypropylene vials, and weighed. The brains were snap frozen in dry ice and subsequently stored frozen (−80° C.) until analysis.
Concentrations of test compound in plasma and tissue samples were determined using an LCMS/MS method validated for linearity, accuracy, precision, matrix factor and recovery (Table 2).
Test compound standard solutions were diluted from a concentrated stock solution (1 mg/mL in DMSO) using 50% acetonitrile in water (v/v) and a calibration curve was prepared in a matched matrix to the test samples.
Plasma: The plasma calibration curve was prepared by spiking aliquots of blank mouse plasma (25 μL) with test compound standard solutions (5 μL) and internal standard solution (5 μL of diazepam, 5 μg/mL in 50% acetonitrile in water). Test plasma samples (25 μL) were thawed, mixed, and then spiked with internal standard solution (5 μL). Plasma protein precipitation was performed by addition of acetonitrile (3-fold volume ratio) and thorough vortex mixing. Samples were centrifuged (RCF=9391×g) for 3 minutes and the supernatant (90 μL) was collected for analysis.
Tissue: Pre-weighed tissue samples (brain) were homogenised using a glass rod in buffer containing an EDTA/potassium fluoride solution (0.1 M/4 mg/mL) as a stabilisation cocktail to minimise the potential for ex vivo degradation (3 mL cocktail/g tissue). The tissue homogenate was briefly centrifuged (RCF=79×g) for 10 seconds to separate the foam layer before transferring an aliquot of the tissue homogenate (200 μL) to a fresh Eppendorf tube for sample extraction. Calibration standards were prepared by spiking blank brain homogenate (200 μL) with the solution standards (10 μL) and the internal standard (10 μL). Study samples were similarly prepared, except that acetonitrile (10 μL) was added instead of solution standards to maintain the same volume. Protein precipitation was carried out by the addition of a 3-fold volume of acetonitrile, followed by vortex mixing and centrifugation (RCF=9391×g) for 3 min to recover the supernatant for analysis.
Replicate analysis: Triplicate analytical replicate (ARs) samples were prepared similarly to the standards for each sample type at three concentrations (50, 500 and 2,000 ng/mL) and repeat injections of these ARs were included throughout the analytical run to assess assay performance. The extraction of the test compound from the standards and ARs were conducted as described above. […]

[2] = molecular target: T1, 5-HT2A (Homo sapiens, UniProt P28223); assay: FLIPR Ca2+ flux functional assay, 5-HT2A receptor (stably transfected HEK293); type: cell-based
T1 construct: host or cells: HEK293
Method: (§1) Activity at 5-HT2A, 5-HT2B and 5-HT2C receptors was determined using a FLIPR Ca^2+ flux assay at WuXi AppTec Co. Ltd. (Hong Kong) Discovery Biology Unit according to their standard protocols. Briefly, stably transfected cells expressing the receptor of interest (HEK293 for 5-HT2A and 5-HT2C; CHO-K1 for 5-HT2B) were grown and plated in a 384 well plate and incubated at 37° C. and 5% CO2 overnight. A 250 mM stock solution of probenecid in FLIPR calcium assay buffer (10 mL) was freshly prepared and combined with a fluorescent dye (Fluo-4 Direct) to give a final assay concentration of 2.5 mM. Reference compounds were 4-fold serially diluted and the screening compounds were 3-fold serially diluted in 100% DMSO for 10 points using Agilent Bravo, and 750 nL was added to a 384 well compound plate using Echo along with 30 μL assay buffer. The fluorescent dye was then added to the assay plate along with assay buffer to a final volume of 40 μL. The cell plate was incubated for 50 min at 37° C. and 5% CO2 and placed into the FLIPR Tetra along with the compound plate. 10 μL of references and compounds were then transferred from the compound plate into the cell plate and the fluorescent signal was read.

[3] = molecular target: T2, 5-HT2C (Homo sapiens, UniProt P28335); assay: FLIPR Ca2+ flux functional assay, 5-HT2C receptor (stably transfected HEK293); type: cell-based
T2 construct: host or cells: HEK293
T2 sequence (P28335 33-458): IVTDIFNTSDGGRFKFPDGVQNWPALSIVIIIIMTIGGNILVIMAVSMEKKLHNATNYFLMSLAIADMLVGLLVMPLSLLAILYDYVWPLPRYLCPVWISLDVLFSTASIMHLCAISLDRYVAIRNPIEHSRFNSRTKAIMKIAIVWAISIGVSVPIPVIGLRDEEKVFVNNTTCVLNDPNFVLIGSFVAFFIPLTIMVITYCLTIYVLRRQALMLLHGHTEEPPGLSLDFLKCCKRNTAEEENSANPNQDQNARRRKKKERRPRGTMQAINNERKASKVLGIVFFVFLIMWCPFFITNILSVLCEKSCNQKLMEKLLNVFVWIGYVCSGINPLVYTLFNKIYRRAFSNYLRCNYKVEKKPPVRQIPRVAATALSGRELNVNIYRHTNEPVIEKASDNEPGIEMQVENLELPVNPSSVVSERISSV
Method: as §1

[4] = IP 10 mg/kg, 0.083 h, individual mice
[5] = IP 10 mg/kg, 0.083 h, individual mice, read-out: Brain Parenchyma Concentration (μM) Individual
[6] = IP 10 mg/kg, 0.5 h, individual mice
[7] = IP 10 mg/kg, 0.5 h, individual mice, read-out: Brain Parenchyma Concentration (μM) Individual
[8] = IP 10 mg/kg, 4 h, individual mice
[9] = IP 10 mg/kg, 4 h, individual mice, read-out: Brain Parenchyma Concentration (μM) Individual
[10] = male, C57BL/6, mouse, brain, ip, 0.083 h, individual mice, read-out: Brain Parenchyma Concentration (μM) Individual
[11] = male, C57BL/6, mouse, brain, ip, 0.083 h, n = 3, read-out: Brain Parenchyma Concentration (μM) Mean ± SD
[12] = male, C57BL/6, mouse, brain, ip, 0.5 h, n = 3, read-out: Brain Parenchyma Concentration (μM) Mean ± SD
[13] = male, C57BL/6, mouse, brain, ip, 4 h, n = 3, read-out: Brain Parenchyma Concentration (μM) Mean ± SD
[14] = male, C57BL/6, mouse, ip, 0.083 h, individual mice, read-out: B:P Ratio Individual
[15] = male, C57BL/6, mouse, ip, 0.083 h, n = 3, read-out: B:P Ratio Mean ± SD
[16] = male, C57BL/6, mouse, ip, 0.5 h, individual mice, read-out: B:P Ratio Individual
[17] = male, C57BL/6, mouse, ip, 0.5 h, n = 3, read-out: B:P Ratio Mean ± SD
[18] = male, C57BL/6, mouse, ip, 4 h, individual mice, read-out: B:P Ratio Individual
[19] = male, C57BL/6, mouse, ip, 4 h, n = 3, read-out: B:P Ratio Mean ± SD
[20] = male, C57BL/6, mouse, ip, (fu, brain * AUCbrain, 0-4 h)/(fu, plasma * AUCplasma, 0-4 h), read-out: (Unbound) time-averaged B:P
[21] = male, C57BL/6, mouse, ip, AUCbrain, 0-4 h/AUCplasma, 0-4 h, read-out: (Total) time-averaged B:P
[22] = male, C57BL/6, mouse, plasma, ip, 0.083 h, individual mice, read-out: Plasma Concentration (μM) Individual
[23] = male, C57BL/6, mouse, plasma, ip, 0.083 h, n = 3, read-out: Plasma Concentration (μM) Mean ± SD
[24] = male, C57BL/6, mouse, plasma, ip, 0.5 h, individual mice, read-out: Plasma Concentration (μM) Individual
[25] = male, C57BL/6, mouse, plasma, ip, 0.5 h, n = 3, read-out: Plasma Concentration (μM) Mean ± SD
[26] = male, C57BL/6, mouse, plasma, ip, 4 h, n = 3, read-out: Plasma Concentration (μM) Mean ± SD
[27] = male, C57BL/6, mouse, plasma, IP 10 mg/kg
[28] = male, C57BL/6, mouse, IP 10 mg/kg, plasma
[29] = agonist activity, Ca2+ flux, HEK293

T1 sequence (P28223 whole entry): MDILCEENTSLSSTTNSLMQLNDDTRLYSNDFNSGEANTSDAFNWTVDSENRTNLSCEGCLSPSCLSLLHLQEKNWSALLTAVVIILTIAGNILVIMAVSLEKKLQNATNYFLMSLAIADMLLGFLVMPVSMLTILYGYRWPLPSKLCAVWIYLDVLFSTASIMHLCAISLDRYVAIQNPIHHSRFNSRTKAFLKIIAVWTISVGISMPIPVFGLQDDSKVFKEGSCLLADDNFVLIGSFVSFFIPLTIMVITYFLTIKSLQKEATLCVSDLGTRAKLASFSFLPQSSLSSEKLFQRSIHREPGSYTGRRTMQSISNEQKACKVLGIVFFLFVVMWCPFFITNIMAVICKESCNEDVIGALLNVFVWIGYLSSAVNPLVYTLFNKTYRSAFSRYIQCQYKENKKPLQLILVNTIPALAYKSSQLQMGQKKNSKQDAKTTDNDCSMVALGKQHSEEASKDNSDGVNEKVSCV

Row | Structure (SMILES) | Brain AUC0-4 h ([1]; IP 10 mg/kg) [µM·h] | B:P Ratio Individual [1, 4] | Plasma Concentration (μM) Individual [1, 4] | concentration at 0.5 h [1, 5] | B:P Ratio Individual [1, 6] | Plasma Concentration (μM) Individual [1, 6] | concentration at 0.5 h [1, 7] | B:P Ratio Individual [1, 8] | Plasma Concentration (μM) Individual [1, 8] | concentration at 0.5 h [1, 9] | concentration at 0.083 h [1, 10] [µM] | concentration at 0.083 h [1, 11] [µM] | concentration at 0.5 h [1, 12] [µM] | concentration at 4 h [1, 13] [µM] | Kp at 0.083 h [1, 14] | Kp at 0.083 h [1, 15] | Kp at 0.5 h [1, 16] | Kp at 0.5 h [1, 17] | Kp at 4 h [1, 18] | Kp at 4 h [1, 19] | further results
1 | COc1ccc2cccc(CCN(C)C(C)C)c2c1 [Example I-7, N-(2-(7-methoxynaphthalen-1-yl)ethyl)-N-methylpropan-2-amine] | 32.3 | 11 and 8.9 | 0.896 µM and 1.00 µM | 9.90 µM and 8.88 µM | 18 and 26 | 0.947 µM and 1.55 µM | 17.9 µM and 17.5 µM and 40.1 µM | 14 and 11 | 0.0483 µM and 0.0571 µM | 0.696 µM and 0.639 µM | 6.41 | 8.4 ± 1.79 | 25.2 ± 13 | 0.0825 | 9.2 | 9.7 ± 1.2 | 17 | 21 ± 4.6 | 16 | 14 ± 2.4 | concentration at 4 h ([1]; male, C57BL/6, mouse, brain, ip, 4 h, individual mice, read-out: Brain Parenchyma Concentration (μM) Individual): 1.14 µM; Kp [1, 20]: 3.2; Kp [1, 21]: 18; concentration at 0.083 h [1, 22]: 0.695 µM; concentration at 0.083 h [1, 23]: 0.864 ± 0.155 µM; concentration at 0.5 h [1, 24]: 1.03 µM; concentration at 0.5 h [1, 25]: 1.18 ± 0.329 µM; concentration at 4 h ([1]; male, C57BL/6, mouse, plasma, ip, 4 h, individual mice, read-out: Plasma Concentration (μM) Individual): 0.0723 µM; concentration at 4 h [1, 26]: 0.0592 ± 0.0121 µM; Cmax [1, 27]: 1180 nM; Tmax [1, 27]: 30 min; AUC(0-t) [1, 27]: 1.82 µM·h; AUC(0-inf) [1, 27]: 1.89 µM·h; half-life [1, 28]: 46.2 min; EC50 [2]: 164 nM; Emax [2, 29]: 84%; EC50 [3]: 603 nM; Emax [3, 29]: 56%
2 | COc1ccc2cccc(CCN(C)C3CC3)c2c1 [Example I-15, N-(2-(7-methoxynaphthalen-1-yl)ethyl)-N-methylcyclopropanamine] | 13.8 | 6.9 and 6.7 | 1.38 µM and 1.48 µM | 9.59 µM and 9.89 µM | 8.2 and 8.1 | 0.932 µM and 0.820 µM | 7.6 µM and 6.64 µM | 9.3 and 7.5 | 0.0701 µM and 0.151 µM and 0.101 µM | 0.553 µM and 1.41 µM and 0.755 µM | 16.9 | 12.1 ± 4.14 | 6.18 ± 1.7 | 0.905 ± 0.446 | 7.3 | 7 ± 0.33 | 6 | 7.4 ± 1.2 | 7.9 | 8.2 ± 1 | concentration at 0.5 h ([1]; male, C57BL/6, mouse, brain, ip, 0.5 h, individual mice, read-out: Brain Parenchyma Concentration (μM) Individual): 4.3 µM; Kp [1, 20]: 2; Kp [1, 21]: 8.1; concentration at 0.083 h [1, 22]: 2.3 µM; concentration at 0.083 h [1, 23]: 1.72 ± 0.506 µM; concentration at 0.5 h [1, 24]: 0.718 µM; concentration at 0.5 h [1, 25]: 0.823 ± 0.107 µM; concentration at 4 h [1, 26]: 0.107 ± 0.0406 µM; Cmax [1, 27]: 1720 nM; Tmax [1, 27]: 5 min; AUC(0-t) [1, 27]: 1.71 µM·h; AUC(0-inf) [1, 27]: 1.9 µM·h; half-life [1, 28]: 72 min; Emax [2, 29]: 70%; EC50 ([2]; agonist activity, Ca2+ flux, HEK293, read-out: 5-HT2A EC50): 133 nM; Emax [3, 29]: 65%; EC50 ([3]; agonist activity, Ca2+ flux, HEK293, read-out: 5-HT2C EC50): 292 nM
